# “Also recorded” adds a separate entry of the source.
# Experiments:
# MV4-11 cells [1] = test: Cell viability assay (CCK-8) in MV4-11 cells; assay type: cell-based; details: Homo sapiens, MV4-11, 72 h, CCK-8, normalized to vehicle
# Procedure: (§1) We proceeded to evaluate the cytotoxic activities of ZW30441 in AML cell lines by treating MOLM13 and MV4-11 cells with ZW30441 in increasing doses for 72 h.
# Cell Lines and Culture Conditions: The human acute myeloid leukemia (AML) cell lines MOLM13 and MV4.11, as well as the HEK 293T epithelial kidney cell line, were obtained from the American Type Culture Collection (ATCC, USA). AML cells were maintained in RPMI-1640 medium (Gibco, USA) supplemented with 10% fetal bovine serum (FBS) and 1% penicillin-streptomycin (Sigma, Germany). HEK 293T cells were cultured in complete Dulbecco’s Modified Eagle Medium (DMEM) containing 10% FBS and 1% penicillin-streptomycin (Sigma). All cell lines were maintained under standard conditions in a humidified atmosphere at 37 °C with 5% CO₂.
# Cell Viability Assay: AML cells were seeded in 96-well plates at a density of 5,000 cells per well and treated with varying concentrations of ZW30441 or vehicle (dimethyl sulfoxide, DMSO). Each condition was performed in triplicate. After the treatment period, cell viability was measured using the Cell Counting Kit-8 (CCK-8; APExBIO, USA, Cat# K1018) according to the manufacturer’s instructions. Absorbance was recorded at 450 nm using a SPECTROstar microplate reader (BMG LABTECH, USA).
# MOLM13 cells = test: Cell proliferation assay in MOLM13 cells; assay type: cell-based, human; details: MOLM-13 cells, 5 µM, 4-day period
# Procedure: as §1
# (§2) Cell Proliferation Assay: To assess cell growth, 1×10⁵ cells were seeded per well in 24-well plates in triplicate and treated with 5 µM concentrations of the test compounds. The culture medium containing the compounds was refreshed every 48 hours, and cell densities were maintained below 1×10⁶ cells/mL through periodic dilution. Cell numbers were measured every other day over a 4-day period using a DS-11 automated cell counter (DeNovix, USA).
# MV4-11 cells [2] = test: Cell proliferation assay in MV4-11 cells; assay type: cell-based, human; details: 5 µM, 4-day period
# Procedure: as §1, §2
# [3] = Metabolic stability in human liver microsomes; assay type: in vitro ADME; details: NADPH, 37 °C
# Procedure: To evaluate the potential for advancing this compound to in vivo studies, the in vitro metabolic stability of this compound was determined in human liver microsomes. […] The flexible linker could then be one potential reason for overall metabolic instability. With this knowledge in hand, further optimization of the lead compound would be necessary before beginning in vivo studies. One potential approach is to introduce more rigid linker systems, thereby reducing molecular flexibility to enhance the metabolic stability while continuing to improve potency.
# Materials for Microsomal Stability: Reagent-grade KH2PO4, K2HPO4, acetonitrile, methanol, and formic acid (LC-MS grade) were purchased from Fisher Scientific. Phenacetin (≥98% purity) and verapamil (≥98% purity) were obtained from Sigma-Aldrich. Reduced nicotinamide adenine dinucleotide phosphate (NADPH) and human liver microsomes (Lot No # 1210270) were obtained from MP Biomedicals and BioIVT, respectively. Ultrapure water was used for analysis.
# Metabolic Stability: Metabolic stability was assessed using male human liver microsomes. ZW30441 was incubated at a concentration of 1 µM with 1 mg/mL of microsomal protein in 50 mM phosphate buffer (pH 7.4). […] Following protein precipitation, the samples were filtered using a Solvinert 96-well plate, centrifuged at 2000 rpm, and analyzed by LC–MS/MS. […]
# METTL3 = METTL3 (Homo sapiens, UniProt Q86U44); test: Mechanism study: METTL3 Western blot in HEK293T cells after pretreatment with proteasome inhibitors or CRBN ligand; assay type: cell-based; set-up: endogenous in cells; details: then ZW30441 2.5 µM for 24 h
# Procedure: We next explored the mechanisms of ZW30441-induced METTL3-METTL14 degradation. HEK293T cells were pretreated with the proteasome inhibitors bortezomib (0.1 µM) or MG132 (1 µM) for 2 h before ZW30441 (2.5 µM) administration (Fig. 4A).
# Fig. 4 ZW30441 induced METTL3-METTL14 complex degradation through the ubiquitin-proteasome system and affected the survival of human AML cell lines. A Western blot analysis of METTL3 expression in HEK293T cells after pretreatment with the CRBN ligand pomalidomide (10 µM) or the proteasome inhibitors bortezamib (0.1 µM) or MG132 (1 µM) for 2 h, followed by treatment with ZW30441 (2.5 µM) for 24 h (left). Western blot analysis of METTL3 and METTL14 levels in MV4-11 cells after treatment with UHZ2, ZW30441, and the negative control ZW30441NC at the indicated concentration for 24 h (right). B Cell viability study of ZW30441 in MOLM13 and MV4-11 cell lines (left). […]
# Western Blot Analysis: Following treatment, total cellular proteins were extracted using RIPA buffer (Auragene, Changsha, China). […] Band intensities were quantified using ImageJ software and normalized to ACTIN as a loading control. Data was analyzed using GraphPad Prism 9. Degradation efficiency was evaluated by calculating DC₅₀, the drug concentration required to reduce target protein levels by 50%, and Dₘₐₓ, the maximum level of degradation observed across all tested concentrations.
# Chain of METTL3 (Q86U44 2-580 limits assumed): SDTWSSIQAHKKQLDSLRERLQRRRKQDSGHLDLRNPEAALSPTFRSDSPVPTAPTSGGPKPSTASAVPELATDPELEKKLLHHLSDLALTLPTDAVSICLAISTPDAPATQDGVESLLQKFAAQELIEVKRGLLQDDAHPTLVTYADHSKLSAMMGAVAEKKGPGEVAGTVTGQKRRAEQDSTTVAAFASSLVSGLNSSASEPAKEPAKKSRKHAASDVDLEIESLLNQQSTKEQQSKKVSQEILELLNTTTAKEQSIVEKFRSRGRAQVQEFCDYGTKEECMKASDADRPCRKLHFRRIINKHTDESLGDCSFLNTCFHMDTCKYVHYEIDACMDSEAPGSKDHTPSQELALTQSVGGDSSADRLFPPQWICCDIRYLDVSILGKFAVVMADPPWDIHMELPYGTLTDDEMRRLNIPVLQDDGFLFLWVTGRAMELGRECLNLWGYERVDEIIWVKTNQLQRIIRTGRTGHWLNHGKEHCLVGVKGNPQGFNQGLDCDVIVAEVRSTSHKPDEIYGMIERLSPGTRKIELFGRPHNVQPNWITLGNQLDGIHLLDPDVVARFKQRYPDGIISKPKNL
# Chain of METTL3 (Q9HCE5 whole entry partner): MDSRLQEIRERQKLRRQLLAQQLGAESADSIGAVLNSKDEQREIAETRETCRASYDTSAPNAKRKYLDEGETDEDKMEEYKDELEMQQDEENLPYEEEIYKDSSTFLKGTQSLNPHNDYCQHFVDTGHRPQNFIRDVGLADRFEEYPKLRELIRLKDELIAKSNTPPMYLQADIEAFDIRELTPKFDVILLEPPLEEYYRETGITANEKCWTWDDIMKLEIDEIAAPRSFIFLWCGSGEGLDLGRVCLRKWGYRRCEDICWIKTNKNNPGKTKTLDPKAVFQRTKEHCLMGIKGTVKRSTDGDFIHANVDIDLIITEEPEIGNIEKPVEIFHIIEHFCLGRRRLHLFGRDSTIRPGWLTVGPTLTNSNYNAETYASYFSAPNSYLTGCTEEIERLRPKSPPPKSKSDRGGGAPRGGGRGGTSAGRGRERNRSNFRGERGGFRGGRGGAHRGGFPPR
smiles,measurement,setting,value
"CC1(C)CCN(Cc2cc(F)c(N3CC(=O)NC4(CCN(c5cc(NCCCCCCCCCC(=O)N6CCN(c7ccc8c(c7)CN(C7CCC(=O)NC7=O)C8=O)CC6)ncn5)CC4)C3)cc2F)CC1 (centres unmarked) [Compound 4j, 3-(5-(4-(10-((6-(4-(4-((4,4-dimethylpiperidin-1-yl)methyl)-2,5-difluorophenyl)-2-oxo-1,4,9-triazaspiro[5.5]undecan-9-yl)pyrimidin-4-yl)amino)decanoyl)piperazin-1-yl)-1-oxoisoindolin-2-yl)piperidine-2,6-dione]",EC50,MV4-11 cells [1],2.41 µM
same,cell growth inhibition compared to STM2457 and UZH2,MOLM13 cells,comparable cell growth inhibition
same,anti-proliferation activity compared to STM2457 and UZH2,MV4-11 cells [2],enhanced cytotoxicity
same,anti-proliferation activity compared to STM2457 and UZH2,MV4-11 cells [2]; listed as ZW30441,more potent anti-proliferation activity; also recorded: superior cellular activity
same,intrinsic clearance (Clint) in human liver microsomes,"[3]; 1 µM, 1 mg/mL microsomal protein",152.1 ± 26.1 uL/min/mg of protein
same,half-life at 1 µM,"[3]; male, human, liver microsomes, pH 7.4, 1 mg/mL microsomal protein, read-out: half-life (T1/2) in human liver microsomes",4.6 ± 0.7 min
same,METTL3 degradation after pretreatment with proteasome inhibitors,METTL3; bortezomib (0.1 µM) or MG132 (1 µM) for 2 h,effectively blocked; also recorded: abrogated
same,METTL3 degradation after pretreatment with CRBN ligand pomalidomide,METTL3; pomalidomide 10 µM for 2 h,significantly reduced; also recorded: abrogated
